SMILES strings stand for the structures.

Assay [1] has as its system Escherichia coli 205. Description: chemotherapeutic efficacy in vivo against systemic infection in mice (method of Zak et al.). Conditions: systemic infection in female SPF, MF2 mice. The text has this:
(§1) B. Die chemotherapeutische Wirksamkeit in vivo gegen systemische Infektionen in weiblichen SPF, MF2 Mäusen wurde nach der Methode von Zak, 0. et al., 1979, Drugs Exptl. Clin. Res. 5, 45-59, ermittelt. Die gefundenen EDS50-Werte in Milligramm Substanz pro Kilogramm Maus (mg/kg) für eine Anzahl von Mikroorganismen werden für die oral (p.o.) oder subcutan (s.c.) applizierten, Testverbindungen in der Tabelle 2 angegeben.

In assay [2] the test system is Staphylococcus aureus 10 B. The description is as above. Conditions: systemic infection in female SPF, MF2 mice; for ED50 Staphylococcus aureus 10 B: s.c.; for ED50: Staphylococcus aureus, 10B.
Text: as §1

The mark [3] stands for this setting: Escherichia coli, 205, po, p.o.
Setting [4] is: Escherichia coli, 205, sc, s.c.

Take `CN(C)CCn1nnnc1SCC1=C(C(=O)O)N2C(=O)[C@@H](NC(=O)C(NS(=O)(=O)CCN)c3csc(N)n3)[C@H]2SC1` (stereo partly drawn) [Beispiel 20, 3-[1-(2-Dimethylaminoäthyl)-1H-tetrazol-5-ylthiomethyl]-7ß-[(2R,S)-2-(2-aminoäthansulfonylamino)-2-(2-aminothiazol-4-yl)-acetamido]-3-cephem-4-carbonsäure]: the entries for the “ED50 Escherichia coli 205” value in assay [1] (p.o.) and in assay [1] (s.c.) were 8 mg/kg and 0,8 mg/kg, respectively. Also, in assay [2], the “ED50 Staphylococcus aureus 10 B” value is over 30 mg/kg.

Consider `NCCS(=O)(=O)NC(C(=O)N[C@@H]1C(=O)N2C(C(=O)[O-])=C(CSc3nnnn3CC(=O)O)CS[C@H]12)c1csc(N)n1.[Na+]` (stereo partly drawn) [Testverbindung 5, 3-(1-Carboxymethyl-1H-tetrazol-5-ylthiomethyl)-7ß-[(2R,S)-2-(2-aminoäthansulfonylamino)-2-(2-aminothiazol-4-yl)-acetamido]-3-cephem-4-carbonsäure-natriumsalz], for which the “ED50 Escherichia coli 205” value in assay [1] (p.o.) is 2 mg/kg; in assay [1] (s.c.), 0,45 mg/kg. Moreover, in assay [2], the “ED50 Staphylococcus aureus 10 B” value is recorded as 78 mg/kg.

With `NCCS(=O)(=O)NC(C(=O)N[C@@H]1C(=O)N2C(C(=O)[O-])=C(CSc3nnnn3CS(=O)(=O)O)CS[C@H]12)c1csc(N)n1.[Na+]` (stereo partly drawn) [Testverbindung 6, 3-(1-Sulfomethyl-1H-tetrazol-5-ylthiomethyl)-7ß-[(2R,S)-2-(2-aminoäthansulfonylamino)-2-(2-aminothiazol-4-yl)-acetamido]-3-cephem-4-carbonsäurematriumsalz], the “ED50 Escherichia coli 205” value is given as 10 mg/kg in assay [1] (p.o.) and 6,0 mg/kg in assay [1] (s.c.). In assay [2], the “ED50 Staphylococcus aureus 10 B” value was over 30 mg/kg.

`CS(=O)(=O)NC(C(=O)N[C@@H]1C(=O)N2C(C(=O)[O-])=C(C[n+]3ccc(C(N)=O)cc3)CS[C@H]12)c1csc(N)n1` (stereo partly drawn) [Testverbindung 9, 3-(4-Carbamoylpyridiniomethyl)-7ß-[(2R,S)-2-(2-aminothiazol-4-yl)-2-methansulfonylaminoacetamido]-3-cephem-4-carbonsäure]: the “ED50 Escherichia coli 205” value in assay [1] (s.c.) is 25 mg/kg. In addition, the “ED50 Staphylococcus aureus 10 B” value in assay [2] came out at 55 mg/kg.

Regarding `CC(=O)OCC1=C(C(=O)O)N2C(=O)[C@@H](NC(=O)C(NS(=O)(=O)CCNC=O)c3csc(N)n3)[C@H]2SC1` (stereo partly drawn) [Testverbindung 39], the ED50 worked out at 5.5 mg/kg in assay [1] (setting [3]), 0.8 mg/kg in assay [1] (setting [4]) and 10 mg/kg in assay [2] (sc).

As for `CS(=O)(=O)N[C@H](C(=O)N[C@@H]1C(=O)N2C(C(=O)O)=C(COC(N)=O)CS[C@H]12)c1csc(N)n1` [Testverbindung 40], the ED50 in assay [1] (setting [3]) amounted to 0.9 mg/kg; in assay [1] (setting [4]), 0.1 mg/kg; in assay [2] (sc) it was 3 mg/kg.

`C=CC(=O)NCCS(=O)(=O)NC(C(=O)N[C@@H]1C(=O)N2C(C(=O)O)=C(CSc3nnnn3C)CS[C@H]12)c1csc(N)n1` (stereo partly drawn) [Testverbindung 41]: the ED50 in assay [1] (setting [3]) is 10 mg/kg; in assay [1] (setting [4]), 2 mg/kg; in assay [2] (sc) it was 24 mg/kg.

On to `C=CC(=O)NCCS(=O)(=O)N[C@H](C(=O)N[C@@H]1C(=O)N2C(C(=O)O)=C(COC(N)=O)CS[C@H]12)c1csc(N)n1` [Testverbindung 42], for which the ED50 is 2.5 mg/kg in assay [1] (setting [3]), 0.1 mg/kg in assay [1] (setting [4]) and 15 mg/kg in assay [2] (sc).

Consider `CC(=O)NCCS(=O)(=O)NC(C(=O)N[C@@H]1C(=O)N2C(C(=O)O)=C(CSc3nnnn3C)CS[C@H]12)c1csc(N)n1` (stereo partly drawn) [Testverbindung 43], for which the ED50 worked out at 8 mg/kg in assay [1] (setting [3]), 1 mg/kg in assay [1] (setting [4]) and 50 mg/kg in assay [2] (sc).

`CS(=O)(=O)NC(C(=O)N[C@@H]1C(=O)N2C(C(=O)O)=C(CSc3nnnn3CS(=O)(=O)O)CS[C@H]12)c1csc(N)n1` (stereo partly drawn) [Testverbindung 44]: the figures for the ED50 in assay [1] (setting [4]) and in assay [2] (sc) were under 1 mg/kg and 85 mg/kg, respectively.

In the case of `CS(=O)(=O)NCCS(=O)(=O)NC(C(=O)N[C@@H]1C(=O)N2C(C(=O)O)=C(COC(N)=O)CS[C@H]12)c1csc(N)n1` (stereo partly drawn) [Testverbindung 45], the results for the ED50 in assay [2] (po) and in assay [2] (sc) were 90 mg/kg and 55 mg/kg, respectively.

Consider `NC(=O)OCC1=C(C(=O)O)N2C(=O)C(NC(=O)C(NS(=O)(=O)CCNS(=O)(=O)c3ccc(N)cc3)c3csc(N)n3)C2SC1` (stereo not drawn) [Testverbindung 46], for which the results for the ED50 in assay [1] (setting [4]) and in assay [2] (sc) were under 1 mg/kg and 9 mg/kg, respectively.

For the molecule `CC(=O)OCC1=C(C(=O)O)N2C(=O)[C@@H](NC(=O)C(NS(=O)(=O)CCNS(=O)(=O)c3ccc(N)cc3)c3csc(N)n3)[C@H]2SC1` (stereo partly drawn) [Testverbindung 47], the ED50 in assay [1] (setting [3]) was over 30 mg/kg; in assay [1] (setting [4]), 2.8 mg/kg; in assay [2] (po), 100 mg/kg; in assay [2] (sc), 5 mg/kg.

Source of the values: EP0092830A2, “Cephalosporin derivatives, process for their preparation, pharmaceutical compositions containing them and their application” (CIBA-GEIGY AG, priority 1982, dated 1983).
